Source: the kinase profiling compilation of Christmann-Franck et al. (2016)

What was measured:
Experiment in all cases: radiometric filter-binding kinase assay, Kinase HotSpot
Conditions in all cases: compound 0.5 µM; ATP 10 µM
[1] = biological target: OXSR1 (human) (UniProt O95747)
[2] = biological target: CSNK1A1 (human) (UniProt P48729)
[3] = biological target: PAK6 (human) (UniProt Q9NQU5)
[4] = biological target: STK4 (human) (UniProt Q13043)
[5] = biological target: DYRK1B (human) (UniProt Q9Y463)
[6] = biological target: PRKCZ (human) (UniProt Q05513)
[7] = biological target: ITK (human) (UniProt Q08881)
ITK (human), sequence (Q08881 whole entry, looked up): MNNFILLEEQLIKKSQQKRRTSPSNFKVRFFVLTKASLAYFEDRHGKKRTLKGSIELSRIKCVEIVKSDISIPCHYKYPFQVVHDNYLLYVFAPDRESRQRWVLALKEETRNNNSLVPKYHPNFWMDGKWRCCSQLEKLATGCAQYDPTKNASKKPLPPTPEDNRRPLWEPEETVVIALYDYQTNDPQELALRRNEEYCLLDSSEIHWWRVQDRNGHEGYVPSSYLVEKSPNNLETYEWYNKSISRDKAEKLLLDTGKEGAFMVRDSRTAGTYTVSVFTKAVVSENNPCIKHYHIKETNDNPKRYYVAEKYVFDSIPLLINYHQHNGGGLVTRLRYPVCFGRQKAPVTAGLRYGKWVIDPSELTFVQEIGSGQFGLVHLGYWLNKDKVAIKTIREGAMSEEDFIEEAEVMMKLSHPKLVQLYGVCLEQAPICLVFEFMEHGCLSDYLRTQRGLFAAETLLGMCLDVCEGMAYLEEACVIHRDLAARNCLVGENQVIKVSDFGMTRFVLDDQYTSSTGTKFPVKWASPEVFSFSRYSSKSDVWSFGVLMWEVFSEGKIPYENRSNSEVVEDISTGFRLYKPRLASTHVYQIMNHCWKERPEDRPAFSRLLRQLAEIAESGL

[8] = biological target: PLK3 (human) (UniProt Q9H4B4)
[9] = biological target: NEK2 (human) (UniProt P51955)
[10] = biological target: PRKCB2 (human) (UniProt P05771)
[11] = biological target: SGK2 (human) (UniProt Q9HBY8)
[12] = biological target: MST4 (human) (UniProt Q9P289)
MST4 (human), sequence (Q9P289 whole entry, looked up): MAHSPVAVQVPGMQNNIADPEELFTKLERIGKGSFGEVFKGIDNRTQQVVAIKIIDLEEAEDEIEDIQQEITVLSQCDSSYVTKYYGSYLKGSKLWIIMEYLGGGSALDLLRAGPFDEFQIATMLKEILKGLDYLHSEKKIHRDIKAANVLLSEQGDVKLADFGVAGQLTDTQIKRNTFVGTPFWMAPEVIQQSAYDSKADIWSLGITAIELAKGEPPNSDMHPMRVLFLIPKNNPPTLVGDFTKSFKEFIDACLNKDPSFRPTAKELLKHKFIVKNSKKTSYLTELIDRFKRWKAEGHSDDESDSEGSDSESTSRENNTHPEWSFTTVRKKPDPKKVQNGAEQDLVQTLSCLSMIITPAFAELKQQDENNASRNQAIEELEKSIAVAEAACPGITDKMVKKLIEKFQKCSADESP

[13] = biological target: MAPK1 (human) (UniProt P28482)
[14] = biological target: TSSK1B (human) (UniProt Q9BXA7)
[15] = biological target: RPS6KA4 KD2 (human) (UniProt O75676)
RPS6KA4 KD2 (human), sequence (O75676 whole entry, looked up): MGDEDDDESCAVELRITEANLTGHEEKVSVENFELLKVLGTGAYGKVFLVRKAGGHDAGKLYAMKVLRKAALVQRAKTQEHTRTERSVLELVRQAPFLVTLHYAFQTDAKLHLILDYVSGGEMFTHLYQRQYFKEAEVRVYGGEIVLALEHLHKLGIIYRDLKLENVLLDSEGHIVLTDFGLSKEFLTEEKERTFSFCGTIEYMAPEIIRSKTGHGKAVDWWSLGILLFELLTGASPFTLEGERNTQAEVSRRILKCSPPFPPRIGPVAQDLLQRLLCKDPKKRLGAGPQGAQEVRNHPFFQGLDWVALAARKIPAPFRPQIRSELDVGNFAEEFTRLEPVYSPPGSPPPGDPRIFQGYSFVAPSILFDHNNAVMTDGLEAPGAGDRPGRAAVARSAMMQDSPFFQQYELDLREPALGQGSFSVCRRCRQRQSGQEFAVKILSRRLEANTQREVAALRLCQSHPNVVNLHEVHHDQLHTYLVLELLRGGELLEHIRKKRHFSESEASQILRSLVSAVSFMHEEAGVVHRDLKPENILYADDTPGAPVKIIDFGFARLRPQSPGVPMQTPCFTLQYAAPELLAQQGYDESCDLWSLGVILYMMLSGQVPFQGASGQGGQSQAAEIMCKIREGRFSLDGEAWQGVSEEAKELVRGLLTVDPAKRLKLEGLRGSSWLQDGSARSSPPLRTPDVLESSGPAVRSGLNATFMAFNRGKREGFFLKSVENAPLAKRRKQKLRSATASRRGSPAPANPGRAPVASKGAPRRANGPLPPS

[16] = biological target: RAF1 (human) (UniProt P04049)
[17] = biological target: TXK (human) (UniProt P42681)
[18] = biological target: CSNK1E (human) (UniProt P49674)
[19] = biological target: ERBB2 (human) (UniProt P04626)
[20] = biological target: RPS6KA1 KD1 KD2 (human) (UniProt Q15418)
[21] = biological target: DMPK (human) (UniProt Q09013)
[22] = biological target: TAOK3 (human) (UniProt Q9H2K8)
TAOK3 (human), sequence (Q9H2K8 whole entry, looked up): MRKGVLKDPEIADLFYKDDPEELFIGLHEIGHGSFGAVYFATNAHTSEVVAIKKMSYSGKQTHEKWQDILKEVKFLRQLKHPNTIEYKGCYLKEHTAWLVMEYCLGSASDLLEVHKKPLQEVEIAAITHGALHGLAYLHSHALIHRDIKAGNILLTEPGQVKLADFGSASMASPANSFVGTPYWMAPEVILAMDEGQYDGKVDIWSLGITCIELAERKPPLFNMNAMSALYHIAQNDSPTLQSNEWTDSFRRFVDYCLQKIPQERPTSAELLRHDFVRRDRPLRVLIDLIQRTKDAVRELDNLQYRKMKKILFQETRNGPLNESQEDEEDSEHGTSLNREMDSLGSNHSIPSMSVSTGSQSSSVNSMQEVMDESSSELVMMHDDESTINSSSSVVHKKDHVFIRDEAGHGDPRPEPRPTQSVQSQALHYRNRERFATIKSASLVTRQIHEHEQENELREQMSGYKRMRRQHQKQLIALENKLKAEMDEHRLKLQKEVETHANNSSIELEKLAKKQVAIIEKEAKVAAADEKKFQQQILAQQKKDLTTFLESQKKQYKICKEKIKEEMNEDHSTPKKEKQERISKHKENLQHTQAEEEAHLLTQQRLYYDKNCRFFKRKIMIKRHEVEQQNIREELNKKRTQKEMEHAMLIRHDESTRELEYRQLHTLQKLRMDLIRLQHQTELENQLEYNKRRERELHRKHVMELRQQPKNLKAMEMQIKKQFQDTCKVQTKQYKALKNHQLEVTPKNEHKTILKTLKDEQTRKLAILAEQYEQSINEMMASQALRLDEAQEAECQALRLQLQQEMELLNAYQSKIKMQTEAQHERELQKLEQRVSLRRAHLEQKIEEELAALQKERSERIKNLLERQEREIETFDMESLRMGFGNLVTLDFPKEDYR

[23] = biological target: NUAK1 (human) (UniProt O60285)
[24] = biological target: CAMK2A (human) (UniProt Q9UQM7)
CAMK2A (human), sequence (Q9UQM7 whole entry, looked up): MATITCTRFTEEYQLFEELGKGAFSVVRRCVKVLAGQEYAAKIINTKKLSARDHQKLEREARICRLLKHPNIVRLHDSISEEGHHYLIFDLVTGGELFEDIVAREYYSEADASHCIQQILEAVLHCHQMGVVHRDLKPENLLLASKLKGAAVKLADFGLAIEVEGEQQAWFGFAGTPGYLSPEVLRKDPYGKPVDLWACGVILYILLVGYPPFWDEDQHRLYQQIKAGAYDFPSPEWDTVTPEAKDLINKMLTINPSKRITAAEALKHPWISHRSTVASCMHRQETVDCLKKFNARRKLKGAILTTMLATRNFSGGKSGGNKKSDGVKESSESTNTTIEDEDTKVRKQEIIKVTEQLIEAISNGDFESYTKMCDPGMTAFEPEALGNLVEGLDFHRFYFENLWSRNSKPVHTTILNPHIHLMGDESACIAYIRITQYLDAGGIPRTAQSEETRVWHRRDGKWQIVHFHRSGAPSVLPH

[25] = biological target: KDR (human) (UniProt P35968)
[26] = biological target: MAP4K5 (human) (UniProt Q9Y4K4)
[27] = biological target: STK33 (human) (UniProt Q9BYT3)
[28] = biological target: FLT1 (human) (UniProt P17948)
[29] = biological target: BRSK1 (human) (UniProt Q8TDC3)
[30] = biological target: PTK6 (human) (UniProt Q13882)
PTK6 (human), sequence (Q13882 whole entry, looked up): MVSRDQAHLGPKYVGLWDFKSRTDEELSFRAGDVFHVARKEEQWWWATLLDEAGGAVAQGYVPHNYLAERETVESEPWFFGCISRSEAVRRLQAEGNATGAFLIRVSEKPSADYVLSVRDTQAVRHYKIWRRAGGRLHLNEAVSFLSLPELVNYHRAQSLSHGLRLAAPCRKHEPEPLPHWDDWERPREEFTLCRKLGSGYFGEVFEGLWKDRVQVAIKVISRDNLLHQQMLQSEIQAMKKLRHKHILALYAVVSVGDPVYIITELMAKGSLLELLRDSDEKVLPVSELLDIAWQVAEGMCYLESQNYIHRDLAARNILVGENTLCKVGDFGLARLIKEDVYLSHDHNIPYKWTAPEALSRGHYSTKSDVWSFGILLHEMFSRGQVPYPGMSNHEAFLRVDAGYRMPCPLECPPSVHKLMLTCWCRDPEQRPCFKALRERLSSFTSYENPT

[31] = biological target: RPS6KA2 KD1 KD2 (human) (UniProt Q15349)
[32] = biological target: CLK4 (human) (UniProt Q9HAZ1)
CLK4 (human), sequence (Q9HAZ1 whole entry, looked up): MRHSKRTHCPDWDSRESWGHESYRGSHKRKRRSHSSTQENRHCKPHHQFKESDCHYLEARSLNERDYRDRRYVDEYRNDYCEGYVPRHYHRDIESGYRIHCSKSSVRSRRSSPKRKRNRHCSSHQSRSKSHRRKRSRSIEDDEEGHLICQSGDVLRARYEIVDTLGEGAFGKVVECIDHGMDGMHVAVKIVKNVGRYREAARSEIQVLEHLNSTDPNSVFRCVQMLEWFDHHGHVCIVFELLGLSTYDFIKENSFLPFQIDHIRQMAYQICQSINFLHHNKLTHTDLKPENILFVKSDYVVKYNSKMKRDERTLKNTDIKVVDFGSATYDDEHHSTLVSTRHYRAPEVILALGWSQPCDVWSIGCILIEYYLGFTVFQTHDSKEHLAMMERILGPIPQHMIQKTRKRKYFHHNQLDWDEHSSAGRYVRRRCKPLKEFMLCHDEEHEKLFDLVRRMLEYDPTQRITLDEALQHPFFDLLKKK

[33] = biological target: RPS6KB1 (human) (UniProt P23443)
[34] = biological target: MAP3K8 (human) (UniProt P41279)
[35] = biological target: JAK2 JH1 JH2 (human) (UniProt O60674)
[36] = biological target: CDK3 CCNE1 (human) (UniProt Q00526+P24864)
[37] = biological target: GRK5 (human) (UniProt P34947)
[38] = biological target: PDPK1 (human) (UniProt O15530)
[39] = biological target: CAMK2B (human) (UniProt Q13554)
[40] = biological target: MUSK (human) (UniProt O15146)
MUSK (human), sequence (O15146 whole entry, looked up): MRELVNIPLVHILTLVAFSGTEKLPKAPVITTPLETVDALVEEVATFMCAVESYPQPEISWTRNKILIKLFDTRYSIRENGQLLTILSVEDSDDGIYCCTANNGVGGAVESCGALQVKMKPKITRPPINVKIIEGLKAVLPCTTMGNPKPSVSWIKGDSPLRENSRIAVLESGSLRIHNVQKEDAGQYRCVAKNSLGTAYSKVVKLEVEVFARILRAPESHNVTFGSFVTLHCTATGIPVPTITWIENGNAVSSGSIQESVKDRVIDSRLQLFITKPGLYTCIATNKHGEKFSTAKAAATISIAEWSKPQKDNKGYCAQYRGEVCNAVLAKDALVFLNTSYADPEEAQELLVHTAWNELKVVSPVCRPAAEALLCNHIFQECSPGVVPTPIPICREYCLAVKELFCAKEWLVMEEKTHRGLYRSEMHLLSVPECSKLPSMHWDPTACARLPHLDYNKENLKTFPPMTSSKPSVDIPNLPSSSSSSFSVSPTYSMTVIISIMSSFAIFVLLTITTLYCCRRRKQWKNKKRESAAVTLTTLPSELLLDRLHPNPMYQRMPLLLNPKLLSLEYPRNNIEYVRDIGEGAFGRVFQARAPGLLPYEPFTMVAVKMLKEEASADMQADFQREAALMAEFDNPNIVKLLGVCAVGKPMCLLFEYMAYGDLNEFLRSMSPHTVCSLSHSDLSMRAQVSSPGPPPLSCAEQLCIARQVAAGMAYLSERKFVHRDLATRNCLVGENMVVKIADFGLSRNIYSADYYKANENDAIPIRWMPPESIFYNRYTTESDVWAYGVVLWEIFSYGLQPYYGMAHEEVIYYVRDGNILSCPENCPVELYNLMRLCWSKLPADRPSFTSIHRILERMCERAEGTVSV

[41] = biological target: SYK (human) (UniProt P43405)
[42] = biological target: PIM1 (human) (UniProt P11309)

SMILES: CN(C)CCCn1cc(C2=C(c3c[nH]c4ccccc34)C(=O)NC2=O)c2ccccc21
- residual activity [1]: 97.4%
- residual activity [2]: 96.5%
- residual activity [3]: 101%
- residual activity [4]: 25.1%
- residual activity [5]: 76%
- residual activity [6]: 57.2%
- residual activity [7]: 102%
- residual activity [8]: 94.9%
- residual activity [9]: 96.2%
- residual activity [10]: 12.6%
- residual activity [11]: 74.4%
- residual activity [12]: 37.2%
- residual activity [13]: 100%
- residual activity [14]: 89.8%
- residual activity [15]: 34.9%
- residual activity [16]: 118%
- residual activity [17]: 107%
- residual activity [18]: 96.3%
- residual activity [19]: 96.5%
- residual activity [20]: 4.67%
- residual activity [21]: 94.7%
- residual activity [22]: 67.6%
- residual activity [23]: 25.9%
- residual activity [24]: 35.2%
- residual activity [25]: 65.5%
- residual activity [26]: 68.5%
- residual activity [27]: 62.9%
- residual activity [28]: 78.1%
- residual activity [29]: 76.9%
- residual activity [30]: 95.3%
- residual activity [31]: 1.4%
- residual activity [32]: 44.8%
- residual activity [33]: 11.6%
- residual activity [34]: 93.9%
- residual activity [35]: 93.9%
- residual activity [36]: 93.2%
- residual activity [37]: 71.6%
- residual activity [38]: 83.3%
- residual activity [39]: 74.5%
- residual activity [40]: 71.9%
- residual activity [41]: 90%

SMILES: Fc1ccc(-c2nc3n(c2-c2ccncc2)CCS3)cc1
- residual activity [1]: 92.5%
- residual activity [2]: 58.8%
- residual activity [3]: 106%
- residual activity [5]: 104%
- residual activity [6]: 90.6%
- residual activity [7]: 97.5%
- residual activity [8]: 97.8%
- residual activity [9]: 115%
- residual activity [10]: 87.2%
- residual activity [11]: 105%
- residual activity [12]: 109%
- residual activity [13]: 106%
- residual activity [14]: 119%
- residual activity [15]: 88.8%
- residual activity [42]: 104%
- residual activity [16]: 91.1%
- residual activity [17]: 98.9%
- residual activity [18]: 20%
- residual activity [19]: 105%
- residual activity [20]: 100%
- residual activity [21]: 102%
- residual activity [22]: 98.9%
- residual activity [23]: 98.6%
- residual activity [24]: 106%
- residual activity [25]: 95.7%
- residual activity [26]: 98.7%
- residual activity [27]: 96.5%
- residual activity [28]: 84.1%
- residual activity [29]: 93.9%
- residual activity [30]: 84.8%
- residual activity [31]: 97.1%
- residual activity [32]: 106%
- residual activity [33]: 108%
- residual activity [34]: 88.1%
- residual activity [35]: 93.6%
- residual activity [36]: 97%
- residual activity [37]: 103%
- residual activity [38]: 109%
- residual activity [39]: 90%
- residual activity [40]: 91.1%
- residual activity [41]: 98.3%

SMILES: O=C(c1cc2cc(O)ccc2[nH]1)c1cc2cc(O)ccc2[nH]1
- residual activity [1]: 105%
- residual activity [2]: 96.3%
- residual activity [3]: 74.4%
- residual activity [4]: 33.7%
- residual activity [5]: 92%
- residual activity [7]: 77.7%
- residual activity [8]: 101%
- residual activity [9]: 101%
- residual activity [10]: 98.9%
- residual activity [11]: 94.3%
- residual activity [12]: 101%
- residual activity [13]: 113%
- residual activity [14]: 96.4%
- residual activity [15]: 81.3%
- residual activity [42]: 76.1%
- residual activity [16]: 104%
- residual activity [17]: 74.9%
- residual activity [18]: 88.4%
- residual activity [19]: 113%
- residual activity [20]: 30.1%
- residual activity [21]: 96.9%
- residual activity [22]: 66.6%
- residual activity [23]: 69.2%
- residual activity [24]: 74.5%
- residual activity [25]: 69.9%
- residual activity [26]: 28.7%
- residual activity [27]: 77.5%
- residual activity [28]: 81.3%
- residual activity [29]: 53.6%
- residual activity [30]: 91.9%
- residual activity [31]: 22.2%
- residual activity [32]: 79.1%
- residual activity [33]: 85%
- residual activity [34]: 93%
- residual activity [35]: 95.6%
- residual activity [36]: 85.2%
- residual activity [37]: 104%
- residual activity [38]: 97.2%
- residual activity [39]: 93.4%
- residual activity [40]: 55.1%
- residual activity [41]: 72%

SMILES: CN(C)S(=O)(=O)c1ccc2c(c1)/C(=C/c1cc3c([nH]1)CCCC3)C(=O)N2
- residual activity [1]: 89.1%
- residual activity [2]: 91.7%
- residual activity [3]: 98.9%
- residual activity [4]: 13.1%
- residual activity [5]: 93.6%
- residual activity [6]: 98.9%
- residual activity [7]: 61.2%
- residual activity [8]: 94.5%
- residual activity [9]: 98%
- residual activity [10]: 92%
- residual activity [11]: 101%
- residual activity [12]: 45.6%
- residual activity [13]: 101%
- residual activity [14]: 74.6%
- residual activity [15]: 104%
- residual activity [42]: 101%
- residual activity [16]: 97.7%
- residual activity [17]: 96%
- residual activity [18]: 104%
- residual activity [19]: 101%
- residual activity [20]: 68.1%
- residual activity [21]: 102%
- residual activity [22]: 55.4%
- residual activity [23]: 10.9%
- residual activity [24]: 61.4%
- residual activity [25]: 96.9%
- residual activity [26]: 3.08%
- residual activity [27]: 77.2%
- residual activity [28]: 84.9%
- residual activity [29]: 32.4%
- residual activity [30]: 56.3%
- residual activity [31]: 52.8%
- residual activity [32]: 50.7%
- residual activity [33]: 96.5%
- residual activity [34]: 94.6%
- residual activity [35]: 46.1%
- residual activity [36]: 96.9%
- residual activity [37]: 95.3%
- residual activity [39]: 70%
- residual activity [40]: 82.8%
- residual activity [41]: 77.7%
